Assay results published in PubChem BioAssay AID1918994 (Molecular Pharmacology Branch, DTP, NCI, 2023).

System: 292921-168-R-J2-PDC complex spheroid growth
Experiment: Anticancer human tumor 292921-168-R-J2-PDC patient-derived pancreatic carcinoma cell line growth inhibition [AhR]
Details: for IC50: curve of first compound; for viability, T/C: stronger effect = lower value
Method in brief: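 Spheroids combined tumor cells with HUVEC endothelial cells and human MSCs as stroma. AhR antagonists were paired with standard or investigational drugs, each dosed in half-log steps down from near clinical Cmax, or from 10 microM where Cmax was unknown.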

[1] = second compound 0.1 µM, first compound 0.0316 µM
[2] = second compound 0.1 µM, first compound 0.1 µM
[3] = second compound 0.1 µM, first compound 0.316 µM
[4] = second compound 0.1 µM, first compound 1 µM
[5] = second compound 0.1 µM, first compound 3.16 µM
[6] = second compound 0.1 µM, first compound 10 µM
[7] = second compound 0.316 µM, first compound 0.0316 µM
[8] = second compound 0.316 µM, first compound 0.1 µM
[9] = second compound 0.316 µM, first compound 0.316 µM
[10] = second compound 0.316 µM, first compound 1 µM
[11] = second compound 0.316 µM, first compound 3.16 µM
[12] = second compound 0.316 µM, first compound 10 µM
[13] = second compound 1 µM, first compound 0.0316 µM
[14] = second compound 1 µM, first compound 0.1 µM
[15] = second compound 1 µM, first compound 0.316 µM
[16] = second compound 1 µM, first compound 1 µM
[17] = second compound 1 µM, first compound 3.16 µM
[18] = second compound 1 µM, first compound 10 µM
[19] = second compound 3.16 µM, first compound 0.0316 µM
[20] = second compound 3.16 µM, first compound 0.1 µM
[21] = second compound 3.16 µM, first compound 0.316 µM
[22] = second compound 3.16 µM, first compound 1 µM
[23] = second compound 3.16 µM, first compound 3.16 µM
[24] = second compound 3.16 µM, first compound 10 µM
[25] = second compound 10 µM, first compound 0.0316 µM
[26] = second compound 10 µM, first compound 0.1 µM
[27] = second compound 10 µM, first compound 0.316 µM
[28] = second compound 10 µM, first compound 1 µM
[29] = second compound 10 µM, first compound 3.16 µM
[30] = second compound 10 µM, first compound 10 µM
[31] = second compound 0.1 µM, first compound 0.00949 µM
[32] = second compound 0.1 µM, first compound 0.03 µM
[33] = second compound 0.1 µM, first compound 0.0949 µM
[34] = second compound 0.1 µM, first compound 0.3 µM
[35] = second compound 0.1 µM, first compound 0.949 µM
[36] = second compound 0.1 µM, first compound 3 µM
[37] = second compound 0.316 µM, first compound 0.00949 µM
[38] = second compound 0.316 µM, first compound 0.03 µM
[39] = second compound 0.316 µM, first compound 0.0949 µM
[40] = second compound 0.316 µM, first compound 0.3 µM
[41] = second compound 0.316 µM, first compound 0.949 µM
[42] = second compound 0.316 µM, first compound 3 µM
[43] = second compound 1 µM, first compound 0.00949 µM
[44] = second compound 1 µM, first compound 0.03 µM
[45] = second compound 1 µM, first compound 0.0949 µM
[46] = second compound 1 µM, first compound 0.3 µM
[47] = second compound 1 µM, first compound 0.949 µM
[48] = second compound 1 µM, first compound 3 µM
[49] = second compound 3.16 µM, first compound 0.00949 µM
[50] = second compound 3.16 µM, first compound 0.03 µM
[51] = second compound 3.16 µM, first compound 0.0949 µM
[52] = second compound 3.16 µM, first compound 0.3 µM
[53] = second compound 3.16 µM, first compound 0.949 µM
[54] = second compound 3.16 µM, first compound 3 µM
[55] = second compound 10 µM, first compound 0.00949 µM
[56] = second compound 10 µM, first compound 0.03 µM
[57] = second compound 10 µM, first compound 0.0949 µM
[58] = second compound 10 µM, first compound 0.3 µM
[59] = second compound 10 µM, first compound 0.949 µM
[60] = second compound 10 µM, first compound 3 µM
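Also: spheroids exposed to compounds for seven days after three days of growth.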

CC1(C)CCC(CN2CCN(c3ccc(C(=O)NS(=O)(=O)c4ccc(NCC5CCOCC5)c([N+](=O)[O-])c4)c(Oc4cnc5[nH]ccc5c4)c3)CC2)=C(c2ccc(Cl)cc2)C1 + CC(CO)NC(=O)c1cc(-c2ccc(Cl)cc2)nn(-c2cnn(C)c2)c1=O
IC50 (second compound 0.1 µM): 6.19 µM | IC50 (second compound 0.316 µM): 6.33 µM | IC50 (second compound 1 µM): 6.81 µM | IC50 (second compound 3.16 µM): 5.75 µM | IC50 (second compound 10 µM): 4.31 µM | viability, T/C [1]: 103% | viability, T/C [2]: 101% | viability, T/C [3]: 108% | viability, T/C [4]: 103% | viability, T/C [5]: 91.1% | viability, T/C [6]: 20.7% | viability, T/C [7]: 105% | viability, T/C [8]: 98.7% | viability, T/C [9]: 106% | viability, T/C [10]: 95.6% | viability, T/C [11]: 97.5% | viability, T/C [12]: 18.8% | viability, T/C [13]: 96.7% | viability, T/C [14]: 94.9% | viability, T/C [15]: 102% | viability, T/C [16]: 98.2% | viability, T/C [17]: 101% | viability, T/C [18]: 25.6% | viability, T/C [19]: 92.9% | viability, T/C [20]: 87.4% | viability, T/C [21]: 93.3% | viability, T/C [22]: 96.7% | viability, T/C [23]: 83.8% | viability, T/C [24]: 18.5% | viability, T/C [25]: 67.8% | viability, T/C [26]: 70.7% | viability, T/C [27]: 71.6% | viability, T/C [28]: 72.5% | viability, T/C [29]: 62.2% | viability, T/C [30]: 16%

CC1COCCN1c1cc(C2(S(C)(=N)=O)CC2)nc(-c2ccnc3[nH]ccc23)n1 (stereo not given) + CC(CO)NC(=O)c1cc(-c2ccc(Cl)cc2)nn(-c2cnn(C)c2)c1=O
IC50 (second compound 0.1 µM): 3.2 µM | IC50 (second compound 0.316 µM): 3 µM | IC50 (second compound 1 µM): 3.62 µM | IC50 (second compound 3.16 µM): 2.94 µM | IC50 (second compound 10 µM): 1.74 µM | viability, T/C [1]: 106% | viability, T/C [2]: 114% | viability, T/C [3]: 105% | viability, T/C [4]: 82.9% | viability, T/C [5]: 51% | viability, T/C [6]: 34.4% | viability, T/C [7]: 107% | viability, T/C [8]: 104% | viability, T/C [9]: 105% | viability, T/C [10]: 87.3% | viability, T/C [11]: 48.4% | viability, T/C [12]: 31.9% | viability, T/C [13]: 114% | viability, T/C [14]: 107% | viability, T/C [15]: 99.5% | viability, T/C [16]: 89.4% | viability, T/C [17]: 50.8% | viability, T/C [18]: 31.2% | viability, T/C [19]: 102% | viability, T/C [20]: 88.1% | viability, T/C [21]: 94.9% | viability, T/C [22]: 84.3% | viability, T/C [23]: 47.7% | viability, T/C [24]: 28.4% | viability, T/C [25]: 78.7% | viability, T/C [26]: 74.2% | viability, T/C [27]: 80.8% | viability, T/C [28]: 63.9% | viability, T/C [29]: 34.7% | viability, T/C [30]: 25.4%

CCN(c1cc(-c2ccc(CN3CCOCC3)cc2)cc(C(=O)NCc2c(C)cc(C)[nH]c2=O)c1C)C1CCOCC1 + CC(CO)NC(=O)c1cc(-c2ccc(Cl)cc2)nn(-c2cnn(C)c2)c1=O
IC50 (second compound 0.1 µM): > 3 µM | IC50 (second compound 0.316 µM): > 3 µM | IC50 (second compound 1 µM): > 3 µM | IC50 (second compound 3.16 µM): > 3 µM | IC50 (second compound 10 µM): > 3 µM | viability, T/C [31]: 103% | viability, T/C [32]: 100% | viability, T/C [33]: 102% | viability, T/C [34]: 93.1% | viability, T/C [35]: 96.9% | viability, T/C [36]: 93.9% | viability, T/C [37]: 107% | viability, T/C [38]: 102% | viability, T/C [39]: 100% | viability, T/C [40]: 103% | viability, T/C [41]: 94.8% | viability, T/C [42]: 87% | viability, T/C [43]: 102% | viability, T/C [44]: 99% | viability, T/C [45]: 110% | viability, T/C [46]: 97% | viability, T/C [47]: 95.5% | viability, T/C [48]: 86.5% | viability, T/C [49]: 91.9% | viability, T/C [50]: 89.4% | viability, T/C [51]: 104% | viability, T/C [52]: 85% | viability, T/C [53]: 81% | viability, T/C [54]: 83% | viability, T/C [55]: 69.1% | viability, T/C [56]: 71.1% | viability, T/C [57]: 76.4% | viability, T/C [58]: 76.2% | viability, T/C [59]: 69.9% | viability, T/C [60]: 72.9%

Nc1ncn(C2CC(O)C(CO)S2)c(=O)n1 (stereo not given) + CC(CO)NC(=O)c1cc(-c2ccc(Cl)cc2)nn(-c2cnn(C)c2)c1=O
IC50 (second compound 0.1 µM): > 0.3 µM | IC50 (second compound 0.316 µM): > 0.3 µM | IC50 (second compound 1 µM): > 0.3 µM | IC50 (second compound 3.16 µM): > 0.3 µM | IC50 (second compound 10 µM): > 0.3 µM | viability, T/C (second compound 0.1 µM, first compound 0.000949 µM): 94.1% | viability, T/C (second compound 0.1 µM, first compound 0.003 µM): 94% | viability, T/C [31]: 98.8% | viability, T/C [32]: 91% | viability, T/C [33]: 88.9% | viability, T/C [34]: 73.5% | viability, T/C (second compound 0.316 µM, first compound 0.000949 µM): 92.3% | viability, T/C (second compound 0.316 µM, first compound 0.003 µM): 95% | viability, T/C [37]: 96.3% | viability, T/C [38]: 92.6% | viability, T/C [39]: 82.7% | viability, T/C [40]: 77.7% | viability, T/C (second compound 1 µM, first compound 0.000949 µM): 97.7% | viability, T/C (second compound 1 µM, first compound 0.003 µM): 103% | viability, T/C [43]: 102% | viability, T/C [44]: 91.8% | viability, T/C [45]: 87.8% | viability, T/C [46]: 80.7% | viability, T/C (second compound 3.16 µM, first compound 0.000949 µM): 90.7% | viability, T/C (second compound 3.16 µM, first compound 0.003 µM): 88.3% | viability, T/C [49]: 89.4% | viability, T/C [50]: 83.2% | viability, T/C [51]: 82.7% | viability, T/C [52]: 72.2% | viability, T/C (second compound 10 µM, first compound 0.000949 µM): 71.9% | viability, T/C (second compound 10 µM, first compound 0.003 µM): 67.7% | viability, T/C [55]: 67.6% | viability, T/C [56]: 67.4% | viability, T/C [57]: 61.9% | viability, T/C [58]: 60.5%

O=C(C=Cn1cnc(-c2cc(C(F)(F)F)cc(C(F)(F)F)c2)n1)NNc1cnccn1 + CC(CO)NC(=O)c1cc(-c2ccc(Cl)cc2)nn(-c2cnn(C)c2)c1=O
IC50 (second compound 0.1 µM): 0.0881 µM | IC50 (second compound 0.316 µM): 0.106 µM | IC50 (second compound 1 µM): 0.0977 µM | IC50 (second compound 3.16 µM): 0.0802 µM | IC50 (second compound 10 µM): 0.0498 µM | viability, T/C [31]: 85.4% | viability, T/C [32]: 91% | viability, T/C [33]: 47% | viability, T/C [34]: 31.1% | viability, T/C [35]: 22.5% | viability, T/C [36]: 13.4% | viability, T/C [37]: 84.6% | viability, T/C [38]: 75.5% | viability, T/C [39]: 49.8% | viability, T/C [40]: 32% | viability, T/C [41]: 20.2% | viability, T/C [42]: 13.2% | viability, T/C [43]: 93.6% | viability, T/C [44]: 76.5% | viability, T/C [45]: 50.5% | viability, T/C [46]: 28.9% | viability, T/C [47]: 19.1% | viability, T/C [48]: 14.3% | viability, T/C [49]: 84.5% | viability, T/C [50]: 67.8% | viability, T/C [51]: 47% | viability, T/C [52]: 29.6% | viability, T/C [53]: 17.7% | viability, T/C [54]: 14.7% | viability, T/C [55]: 66.2% | viability, T/C [56]: 58.9% | viability, T/C [57]: 39.1% | viability, T/C [58]: 22.4% | viability, T/C [59]: 18.5% | viability, T/C [60]: 13.2%
